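Values below derive from 48-hour exposures of cells grown in 96-well plates, with endpoints linearly interpolated between the two concentrations bracketing the appropriate inhibition level. At the GI50, growth is halved. TGI: concentration producing complete growth inhibition.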
How the values were obtained:
Assay in all cases: growth of human tumour cells (NCI), 48 h
[1] = system: CAKI-1 renal
[2] = system: NCI-H460 lung
[3] = system: HOP-92 NSCLC
[4] = system: SR leukemia
[5] = system: HOP-62 NSCLC
[6] = system: EKVX NSCLC
[7] = system: HCT-15 colon
[8] = system: SK-MEL-5 melanoma
[9] = system: IGROV1 ovarian
[10] = system: NCI/ADR-RES ovarian
[11] = system: SK-MEL-2 melanoma
[12] = system: KM12 colon
[13] = system: SF-539 CNS
[14] = system: A549 NSCLC
[15] = system: SK-MEL-28 melanoma
[16] = system: MDA-MB-231 breast
[17] = system: U251 CNS
[18] = system: COLO 205 colon
[19] = system: UO-31 renal
[20] = system: ACHN renal
[21] = system: MALME-3M melanoma
[22] = system: T-47D breast
[23] = system: SN12C renal
[24] = system: CCRF-CEM leukemia
[25] = system: MOLT-4 leukemia
[26] = system: UACC-62 melanoma
[27] = system: BT-549 breast
[28] = system: TK-10 renal
[29] = system: SNB-19 CNS
[30] = system: RPMI-8226 leukemia
[31] = system: HT29 colon
[32] = system: K-562 leukemia
[33] = system: SF-295 CNS
[34] = system: SK-OV-3 ovarian
[35] = system: OVCAR-5 ovarian
[36] = system: A498 renal
[37] = system: HL-60(TB) leukemia
[38] = system: UACC-257 melanoma
[39] = system: SNB-75 CNS
[40] = system: M14 melanoma
[41] = system: MDA-MB-435
[42] = system: OVCAR-4 ovarian
[43] = system: SF-268 CNS
[44] = system: MCF7 breast
[45] = system: NCI-H226 lung
[46] = system: RXF 393 renal
[47] = system: NCI-H23 lung
[48] = system: HCT-116 colon
[49] = system: LOX IMVI melanoma
[50] = system: OVCAR-8 ovarian
[51] = system: 786-0 renal
[52] = system: HCC-2998 colon
[53] = system: OVCAR-3 ovarian
[54] = system: PC-3 prostate
[55] = system: DU-145 prostate
[56] = system: HS 578T breast
[57] = system: SW-620 colon

Structure (SMILES): C=C(C)[C@@H]1CC[C@]2(COS(C)(=O)=O)CC[C@]3(C)[C@H](CC[C@@H]4[C@@]5(C)CCCNC(C)(C)[C@@H]5CC[C@]43C)[C@@H]12
- GI50 [1]: 1670 nM
- TGI [1]: 3.19 µM
- GI50 [2]: 1800 nM
- TGI [2]: 3.49 µM
- GI50 [3]: 1300 nM
- TGI [3]: 2810 nM
- GI50 [4]: 1560 nM
- TGI [4]: 3.52 µM
- GI50 [5]: 1670 nM
- TGI [5]: 3.21 µM
- GI50 [6]: 1580 nM
- TGI [6]: 3.14 µM
- GI50 [7]: 1570 nM
- TGI [7]: 3.06 µM
- GI50 [8]: 1730 nM
- TGI [8]: 3.13 µM
- GI50 [9]: 1770 nM
- TGI [9]: 3.57 µM
- GI50 [10]: 1720 nM
- TGI [10]: 3.27 µM
- GI50 [11]: 1690 nM
- TGI [11]: 3.54 µM
- GI50 [12]: 1830 nM
- TGI [12]: 3.39 µM
- GI50 [13]: 1660 nM
- TGI [13]: 3.08 µM
- GI50 [14]: 1820 nM
- TGI [14]: 3.63 µM
- GI50 [15]: 1700 nM
- TGI [15]: 3.22 µM
- GI50 [16]: 1800 nM
- TGI [16]: 3.31 µM
- GI50 [17]: 1750 nM
- TGI [17]: 3.29 µM
- GI50 [18]: 1730 nM
- TGI [18]: 3.27 µM
- GI50 [19]: 1270 nM
- TGI [19]: 2630 nM
- GI50 [20]: 1810 nM
- TGI [20]: 3.2 µM
- GI50 [21]: 1770 nM
- TGI [21]: 3.73 µM
- GI50 [22]: 1780 nM
- TGI [22]: 4 µM
- GI50 [23]: 2280 nM
- TGI [23]: 5.48 µM
- GI50 [24]: 1760 nM
- TGI [24]: 4.42 µM
- GI50 [25]: 1650 nM
- TGI [25]: 3.62 µM
- GI50 [26]: 1720 nM
- TGI [26]: 3.14 µM
- GI50 [27]: 1990 nM
- TGI [27]: 4.08 µM
- GI50 [28]: 1680 nM
- TGI [28]: 3.58 µM
- GI50 [29]: 1750 nM
- TGI [29]: 3.28 µM
- GI50 [30]: 2050 nM
- TGI [30]: 4.62 µM
- GI50 [31]: 1830 nM
- TGI [31]: 3.55 µM
- GI50 [32]: 1160 nM
- TGI [32]: 3.06 µM
- GI50 [33]: 1820 nM
- TGI [33]: 3.33 µM
- GI50 [34]: 6.44 µM
- TGI [34]: 19.6 µM
- GI50 [35]: 1680 nM
- TGI [35]: 3.1 µM
- GI50 [36]: 1820 nM
- TGI [36]: 6.16 µM
- GI50 [37]: 1620 nM
- TGI [37]: 3.39 µM
- GI50 [38]: 1990 nM
- TGI [38]: 4.27 µM
- GI50 [39]: 1370 nM
- TGI [39]: 3.08 µM
- GI50 [40]: 1780 nM
- TGI [40]: 3.47 µM
- GI50 [41]: 1640 nM
- TGI [41]: 3.04 µM
- GI50 [42]: 1820 nM
- TGI [42]: 3.65 µM
- GI50 [43]: 2610 nM
- TGI [43]: 6.49 µM
- GI50 [44]: 1590 nM
- TGI [44]: 3.5 µM
- GI50 [45]: 1770 nM
- TGI [45]: 3.4 µM
- GI50 [46]: 1660 nM
- TGI [46]: 3.08 µM
- GI50 [47]: 1680 nM
- TGI [47]: 3.34 µM
- GI50 [48]: 1720 nM
- TGI [48]: 3.24 µM
- GI50 [49]: 1090 nM
- TGI [49]: 2370 nM
- GI50 [50]: 1930 nM
- TGI [50]: 3.77 µM
- GI50 [51]: 1800 nM
- TGI [51]: 3.27 µM
- GI50 [52]: 1740 nM
- TGI [52]: 3.16 µM
- GI50 [53]: 1790 nM
- TGI [53]: 3.22 µM
- GI50 [54]: 1590 nM
- TGI [54]: 3.43 µM
- GI50 [55]: 1810 nM
- TGI [55]: 3.29 µM
- GI50 [56]: 1850 nM
- TGI [56]: 3.92 µM
- GI50 [57]: 1680 nM
- TGI [57]: 3.34 µM
